Results published in patent US8969554B2, “6-acyl-1,2,4-triazine-3,5-dione derivative and herbicides” (Kumiai Chemical Industry Co., Ltd., priority 2010, dated 2015).

Columns and labels:
Type in all cases: in vivo
Design in all cases: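 index 0 to 10 in 10% steps of herbicidal effect with 10 meaning complete death and 0 below 10%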
Echinochloa crus-galli [1] = test: Herbicidal activity by field foliage treatment (Test example 3); details: 1000 g effective component per hectare, day 14 after the treatment
Experimental: (§1) Test example 3 Test for Determining Herbicidal Activity by Field Foliage Treatment A 80 cm^2 wide plastic pot was filled with a field soil and seeds of each of Indian millet and A. retroflexus were sowed and then incubated for 2 weeks in a green house. The wettable powder produced with reference to the Formulation example 1 was diluted water, and applied from the air to entire body of the plant as foliage treatment by using a small sprayer in an amount of 1000 liters per hectare so that the effective component is 1000 g per hectare. After that, the plants were cultivated in a greenhouse, and on day 14 after the treatment, evaluation was made by the criteria described in Table 72 for determining the herbicidal effects.

A. retroflexus [2] = test: Herbicidal activity by field soil treatment (Test example 2); details: 1000 g effective component per hectare, day 21 after the treatment
Experimental: (§2) [table] Test for Determining Herbicidal Activity by Field Soil Treatment A 80 cm^2 wide plastic pot was filled with a field soil and seeds of each of Echinochloa crus-galli, foxtail, Indian millet, and A. retroflexus were sowed and then covered with soil. The wettable powder produced with reference to the Formulation example 1 was diluted water, and applied on the soil surface by using a small sprayer in an amount of 1000 liters per hectare so that the effective component is 1000 g per hectare. After that, the plants were cultivated in a greenhouse, and on day 21 after the treatment, evaluation was made by the criteria described in Table 72 for determining the herbicidal effects.

Echinochloa crus-galli [3] = test: as above; details: 1000 g effective component per hectare, day 21 after the treatment
Experimental: as §2

Indian millet [4] = test: as above; details: 1000 g effective component per hectare, day 21 after the treatment
Experimental: as §2

A. retroflexus [5] = test: Herbicidal activity by field foliage treatment (Test example 3); details: 1000 g effective component per hectare, day 14 after the treatment
Experimental: as §1, with “[table]” for “Test example 3”

Indian millet [6] = test: as above; details: 1000 g effective component per hectare, day 14 after the treatment
Experimental: as §1, with “[table]” for “Test example 3”

Echinochloa oryzicola = test: Herbicidal activity by paddy field soil treatment (Test Example 1); details: 1000 g of effective component per hectare, evaluated on day 21 after the treatment, criteria of Table 72
Experimental: (§3) Test for Determining Herbicidal Activity by Paddy Field Soil Treatment A 100 cm^2 wide plastic pot was filled with a paddy field soil and, after watering and shuffling, seeds of each of Echinochloa oryzicola, Monochoria vaginalis, and Scirpus juncoides Rocxb. were sowed and watered to a depth of 3 cm. On the next day, the wettable powder obtained in view of Formulation example 1 was diluted with water and applied on water surface. The application amount was 1000 g of effective component per hectare. After that, the plants were cultivated in a greenhouse, and on day 21 after the treatment, evaluation was made by the criteria of Table 72 for determining the herbicidal effects. [table]

Monochoria vaginalis = test: as above; details: 1000 g of effective component per hectare, evaluated on day 21 after the treatment, criteria of Table 72
Experimental: as §3

Scirpus juncoides Rocxb. = test: as above; details: applied on water surface, 1000 g of effective component per hectare, day 21 after the treatment
Experimental: as §3

Row | Structure (SMILES) | herbicidal effect index, Echinochloa crus-galli (Echinochloa crus-galli [1]) | herbicidal effect index, Amaranthus retroflexus (A. retroflexus [2]) | herbicidal effect index, Echinochloa crus-galli (Echinochloa crus-galli [3]) | herbicidal effect index, Abutilon theophrasti (Indian millet [4]) | herbicidal effect index, Amaranthus retroflexus (A. retroflexus [5]) | herbicidal effect index, Abutilon theophrasti (Indian millet [6]) | Herbicidal effects index number, Echinochloa oryzicola (Echinochloa oryzicola) | Herbicidal effects index number, Monochoria vaginalis (Monochoria vaginalis) | herbicidal effect index, S. juncoides Rocxb. (Scirpus juncoides Rocxb.)
1 | Cc1cccc(-n2c(=O)c(C(=O)C3=C(O)CCCC3=O)nn(C)c2=O)c1F [I-107] | 7 | 10 | 8 | 10 | 10 | 9 | 10 | 10 | 10
2 | Cc1cc(-n2c(=O)c(C(=O)C3=C(O)CCCC3=O)nn(C)c2=O)ccc1Cl [I-135] | 10 | 10 | 9 | 9 | 10 | 10 | 10 | 10 | 10
3 | CCn1nc(C(=O)C2=C(O)CCCC2=O)c(=O)n(-c2ccccc2)c1=O [I-259] | 10 | 10 | 10 | 8 | 10 | 10 | 10 | 10 | 10
4 | Cc1cc(-n2c(=O)c(C(=O)C3=C(O)CCCC3=O)nn(C)c2=O)ccc1F [I-115] | 10 | 9 | 9 | 9 | 10 | 10 | 10 | 10 | 10
5 | Cn1nc(C(=O)C2=C(O)CCCC2=O)c(=O)n(CC2CCCO2)c1=O (stereo not drawn) [I-339] | 9 | 10 | 8 | 10 | 10 | 10 | 10 | 10 | 10
6 | CCN(c1ccccc1)n1c(=O)c(C(=O)O)nn(C)c1=O [V-368] | 7 | 10 | 7 | 10 | 9 | 9 | 10 | 10 | 10
7 | Cn1nc(C(=O)C2=C(O)CCCC2=O)c(=O)n(-c2ccc(Cl)cc2)c1=O [I-53] | 8 | 10 | 8 | 10 | 10 | 10 | 10 | 7 | 10
8 | Cc1ccc(-n2c(=O)c(C(=O)C3=C(O)CCCC3=O)nn(C)c2=O)cc1Cl [I-125] | 10 | 10 | 7 | 8 | 10 | 10 | 10 | 10 | 10
